“And” between values parts separate entries of the source, which are not always exact repeats. Equal entries are not always repeated.
Legend:
Conditions in all cases: repeat exposure
HLC = assay: Repeated-exposure DILI training compounds, resazurin conversion, HLC
In short: (§1)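 Viability by resazurin conversion, correlated with Cmax, was assessed after drug exposure in 384-well cultures of differentiated PSCs and of HepG2 (40,000 cells/well). Dosing began 8 h post-attachment, with untreated wells as negative control.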

HC6X = assay: Repeated-exposure DILI training compounds, resazurin conversion, HC6X
In short: as §1

HC3X = assay: Repeated-exposure DILI training compounds, resazurin conversion, HC3X
In short: as §1

HepG2 = assay: Repeated-exposure DILI training compounds, resazurin conversion, HepG2
In short: as §1

## CN(C)C(=N)N=C(N)N [metformin]
HLC; HLC AAGLY D40, 3 uM
  % resazurin conversion: 117.8% and 180.2% and 192.1% and 138.7% and 131.9% and 161.2%
HLC; HLC AAGLY D40, 10 uM
  % resazurin conversion: 85.1% and 137.4% and 97.3% and 121% and 128.3% and 141.7%
HLC; HLC LDM D40, 3 uM
  % resazurin conversion: 115.5% and 119.8% and 128.3% and 105.8% and 132.2% and 110.8%
HLC; HLC LDM D40, 10 uM
  % resazurin conversion: 112.2% and 115.2% and 101.7% and 107.6% and 122.7% and 95.8%
HLC; HLC LDM D40, 30 uM
  % resazurin conversion: 101.1% and 127.7% and 123.7% and 100.6% and 111.7% and 97.3%
HLC; HLC LDM D40, 50 uM
  % resazurin conversion: 69.5% and 123.5% and 118.7% and 111% and 112.5% and 97.1%
HLC; HLC LDM D40, 100 uM
  % resazurin conversion: 130.3% and 131.7% and 140% and 109.2% and 99.5% and 135.5%
HLC; HLC LDM D40, 300 uM
  % resazurin conversion: 131.8% and 130.1% and 119.9% and 132.8% and 107.9% and 132.1%
HLC; HLC LDM D40, 600 uM
  % resazurin conversion: 142.1% and 137.1% and 121.7% and 130.5% and 134.1% and 94.8%
HLC; HLC LDM D40, 1200 uM
  % resazurin conversion: 117% and 113% and 129.7% and 145.7% and 140.5% and 102.5%
HC6X; HC6X AAGLY D40, 3 uM
  % resazurin conversion: 75.6% and 127.9% and 120.9% and 66.8% and 78.3% and 77.4%
HC6X; HC6X AAGLY D40, 10 uM
  % resazurin conversion: 91.8% and 85.1% and 137.3% and 90.8% and 71.9% and 90%
HC6X; HC6X AAGLY D40, 30 uM
  % resazurin conversion: 64% and 86.6% and 97% and 73.8% and 121% and 127.4%
HC6X; HC6X AAGLY D40, 50 uM
  % resazurin conversion: 73.2% and 144.6% and 104.7% and 102.8% and 73.1% and 92.5%
HC6X; HC6X AAGLY D40, 100 uM
  % resazurin conversion: 106.4% and 149.7% and 103.6% and 154.2% and 106.5% and 116.8%
HC6X; HC6X AAGLY D40, 300 uM
  % resazurin conversion: 112.1% and 78.2% and 96.7% and 122.1% and 97.1% and 124%
HC6X; HC6X AAGLY D40, 1200 uM
  % resazurin conversion: 183.8% and 127.4% and 126.7% and 100% and 123.1%
HC6X; HC6X AAGLY D40 Remove dox, 3 uM
  % resazurin conversion: 170.2% and 195.5% and 109.9% and 145.7% and 191.7% and 155.1%
HC6X; HC6X AAGLY D40 Remove dox, 5 uM
  % resazurin conversion: 151.1% and 130.1% and 149.6% and 123.6% and 100% and 119.7%
HC6X; HC6X AAGLY D40 Remove dox, 10 uM
  % resazurin conversion: 137.7% and 116.6% and 122.1% and 87.2% and 162.4%
HC6X; HC6X AAGLY D40 Remove dox, 30 uM
  % resazurin conversion: 189% and 104.3% and 104.5% and 116.4% and 109.9% and 115%
HC6X; HC6X AAGLY D40 Remove dox, 50 uM
  % resazurin conversion: 175.2% and 137% and 132.8% and 158.7% and 156.7% and 106.3%
HC6X; HC6X AAGLY D40 Remove dox, 100 uM
  % resazurin conversion: 169.7% and 178.1% and 127.2% and 203.2% and 156.7% and 201.6%
HC6X; HC6X AAGLY D40 Remove dox, 300 uM
  % resazurin conversion: 161.6% and 125.1% and 195.3% and 144.9% and 140.1%
HC6X; HC6X AAGLY D40 Remove dox, 600 uM
  % resazurin conversion: 164.3% and 170.2% and 157.3% and 178.7% and 172.2% and 213.4%
HC6X; HC6X AAGLY D40 Remove dox, 1200 uM
  % resazurin conversion: 129.6% and 183.1% and 151.5% and 181.6% and 201.4% and 154.1%
HC3X; HC3X AAGLY D40, 3 uM
  % resazurin conversion: 107.4% and 112.9% and 102.8% and 86.5% and 93.5% and 86.7%
HC3X; HC3X AAGLY D40, 5 uM
  % resazurin conversion: 117.3% and 115.7% and 110.3% and 104.4% and 106.7% and 61.4%
HC3X; HC3X AAGLY D40, 10 uM
  % resazurin conversion: 108.5% and 87.5% and 112.1% and 74.4% and 97.6% and 102.3%
HC3X; HC3X AAGLY D40, 30 uM
  % resazurin conversion: 105.4% and 101.2% and 96.4% and 131.5% and 86.6% and 96.2%
HC3X; HC3X AAGLY D40, 50 uM
  % resazurin conversion: 110.2% and 114.4% and 75% and 103.1% and 92.6% and 99.9%
HC3X; HC3X AAGLY D40, 300 uM
  % resazurin conversion: 121.9% and 148% and 124.4% and 102.2% and 122.5% and 91.9%
HC3X; HC3X AAGLY D40, 600 uM
  % resazurin conversion: 150.2% and 156.7% and 145.2% and 144.4% and 152.7% and 115%
HC3X; HC3X AAGLY D40, 1200 uM
  % resazurin conversion: 124.1% and 158.2% and 141.5% and 92.2% and 126.1% and 100%
HepG2; HepG2 AAGLY D30, 3 uM
  % resazurin conversion: 106.5% and 83.4% and 85.8% and 89.2% and 108.4% and 105.4%
HepG2; HepG2 AAGLY D30, 5 uM
  % resazurin conversion: 88% and 69.4% and 79.7% and 91.5% and 76.9% and 122.8%
HepG2; HepG2 AAGLY D30, 10 uM
  % resazurin conversion: 92.9% and 78.4% and 78.2% and 87.4% and 93.3%
HepG2; HepG2 AAGLY D30, 30 uM
  % resazurin conversion: 87% and 68% and 60.1% and 90.4% and 65.8% and 86.5%
HepG2; HepG2 AAGLY D30, 50 uM
  % resazurin conversion: 88% and 78.4% and 75.6% and 85.4% and 68.8% and 94.1%
HepG2; HepG2 AAGLY D30, 100 uM
  % resazurin conversion: 77.9% and 69.4% and 77.6% and 78.3% and 71.2% and 86.1%
HepG2; HepG2 AAGLY D30, 300 uM
  % resazurin conversion: 86.3% and 86.2% and 78.9% and 85.6% and 74.5% and 86.7%
HepG2; HepG2 AAGLY D30, 600 uM
  % resazurin conversion: 84.6% and 71.8% and 75.9% and 95.3% and 64.4% and 77.4%
HepG2; HepG2 AAGLY D30, 1200 uM
  % resazurin conversion: 73.9% and 67.2% and 67.9% and 98.6% and 62.2% and 57.6%
HepG2; HepG2 CTL D7, 3 uM
  % resazurin conversion: 101.7%
HepG2; HepG2 CTL D7, 5 uM
  % resazurin conversion: 111.2% and 104.6% and 117.2% and 107.8% and 111% and 112.7%
HepG2; HepG2 CTL D7, 10 uM
  % resazurin conversion: 105.8% and 104.6% and 92.9% and 101.2% and 94.9% and 100.3%
HepG2; HepG2 CTL D7, 30 uM
  % resazurin conversion: 99.1% and 100.4% and 105.9% and 109.1% and 102.2%
HepG2; HepG2 CTL D7, 50 uM
  % resazurin conversion: 97.6% and 97.7% and 100.3% and 99.5% and 102% and 100.6%
HepG2; HepG2 CTL D7, 100 uM
  % resazurin conversion: 101.5% and 103.6% and 107.4% and 101.8% and 103.4% and 105%
HepG2; HepG2 CTL D7, 300 uM
  % resazurin conversion: 89.7% and 83.5% and 88.5% and 95.8% and 93.1% and 96.3%
HepG2; HepG2 CTL D7, 600 uM
  % resazurin conversion: 92.6% and 88.6% and 89.1% and 90.3% and 94.1% and 93.8%
HepG2; HepG2 CTL D7, 1200 uM
  % resazurin conversion: 80.9% and 84% and 84.2% and 85.5% and 84.4%

From PMC7069944, “Amino acid levels determine metabolism and CYP450 function of hepatocytes and hepatoma cell lines” (Nature Communications, 2020)
